Laboratory results reported in US20220289731A1, “MELANOCORTIN-4 RECEPTOR AGONISTS” (LG CHEM, LTD., priority 2019, published 2022).
Where two headings read alike, the source gives them in different places.

Experiments:
[1] = molecular target: T1, MC4R (Homo sapiens, UniProt P32245); assay: Luciferase assay (HEK MC4R-Luc, CRE-LUC); format: cell-based; set-up: expressed in transfected cells; conditions: HEK MC4R-Luc cells, 5 h incubation
Procedure: In order to measure the agonist ability against MC4R (melanocortin-4 receptor), a cell line that permanently expresses the luciferase gene (CRE-LUC) under the control of MC4R and CRE (cAMP response element) was established. After a mammalian cell expression vector (pCDNA3 (Neo)) (Invitrogen) containing the MC4R gene was prepared, human embryonic kidney (HEK) cell lines were transformed by using Lipofectamine 2000 (Invitrogen) together with a vector (pCRE-Luc)(Stratagen) expressing a luciferase gene (CRE-LUC) under the control of a cAMP response element (CRE). Transformed cell lines (HEK MC4R-Luc) were incubated in a 37° C. incubator in the presence of 5% CO2 for 24 hours by using Dulbecco's Modified Eagles Medium (DMEM) containing 10% Heat-Inactivated Fetal Bovine Serum (GIBCO/BRL). The cell lines were incubated for four days in the presence of Dulbecco's Modified Eagles Medium (DMEM) containing 10 ml of selection medium (10% Heat-Inactivated Fetal Bovine Serum (GIBCO/BRL), 100 unit/ml of penicillin (GIBCO/BRL), 100 unit/ml of streptomycin (GIBCO/BRL), 800 μg/ml of Geneticin (G418) (GIBCO/BRL). The process of removing cells killed by the selection medium by replacing the medium with 10 ml of a new selection medium was repeated three times, once every 4 days. Individual colonies formed by the finally selected and propagated clones were transferred under a microscope to a 24-well cell culture plate containing 1 ml of selection medium per well and incubated for 4 days. Forskolin (SIGMA) was treated to a final concentration of 10 μM, and then incubated for five hours in a 37° C. incubator in the presence of 5% CO2. Each well was treated with 50 μl of a Bright-Glo luciferase reagent (Promega) and left at room temperature for 15 minutes, and then the luminescence of each well was measured by using a luminometer (Victor).
HEK MC4R-Luc cells were added to each well of a 96-well luminometer cell culture plate (Costar) to a size of 2.5×10^4 cells in 100 μl of a culture medium and then incubated in a 37° C. incubator in the presence of 6% CO2 for 18 hours. […] Each well was treated with 50 μl of a Bright-Glo luciferase reagent (Promega) and left at room temperature for five minutes, and then the luminescence of each well was measured by using a luminometer (Victor). […] EC0.5 MSH is expressed as a concentration that induces 50% of the maximum amount of luminescence that can be induced by NDP-α-MSH, and EC50 is expressed as a concentration that induces 50% of the maximum amount of luminescence that can be induced by each agonist. The measurements were measured using statistical software (Prizm).
Target sequence in this assay (P32245 whole entry, species assumed): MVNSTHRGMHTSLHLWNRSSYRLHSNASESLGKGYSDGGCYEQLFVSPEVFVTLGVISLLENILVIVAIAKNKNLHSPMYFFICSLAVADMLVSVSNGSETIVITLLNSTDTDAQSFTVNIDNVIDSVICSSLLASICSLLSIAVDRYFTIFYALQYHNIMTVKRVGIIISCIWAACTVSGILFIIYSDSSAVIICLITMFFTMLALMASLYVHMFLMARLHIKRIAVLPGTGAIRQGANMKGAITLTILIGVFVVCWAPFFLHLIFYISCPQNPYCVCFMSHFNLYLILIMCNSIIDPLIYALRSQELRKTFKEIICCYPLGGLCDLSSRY

[2] = molecular target: T1, MC4R; assay: Binding affinity, 125I-NDP-α-MSH displacement on membranes; set-up: expressed in transfected cells; host or cells: HEK-293 cells; membranes collected; conditions: HEK-293 MC4R membrane, 0.02 nM 125I-NDP-α-MSH
From the text: Five subtypes of melanocortin receptor (MCR) in vivo are known, and it is known that MC4R, which is Subtype 4, is involved in energy metabolism and weight control. Since other MCR subtypes are involved in the regulation of various functions in vivo such as skin pigmentation, energy homeostasis, and exocrine functions, securing selectivity for MC4R of MC4R agonist compounds is very important in preventing possible side effects in the future. Therefore, the receptor binding abilities of MC4R agonists for each MCR subtype were measured.
After the CHO-K1 cell line expressing human recombinant MC1R and the HEK-293 cell lines expressing MC3R, MC4R and MCSR were established, membranes were collected from each cell line. In a 96-well cell culture plate, 3 μg MC1R membrane and 0.04 nM ^125I-NDP-α-MSH per well were reacted at 37° C. for two hours. 3 μg MC3R and MCSR membrane and 0.035 nM ^125I-NDP-α-MSH were reacted at 37° C. for one hour, and 3.12 μg MC4R membrane and 0.02 nM ^125I-NDP-α-MSH were reacted at 37° C. for two hours. At this time, 25 mM HEPES-KOH adsorption buffer (pH 7.0) containing MCR agonist diluted at each step concentration was added to each well and reacted. The reacted solution was transferred to a filter and washed with an adsorption buffer, and then radioactivity was measured. The value excluding the non-specific binding amount in the presence of 1 μM (MC1R) and 3 μM (MC3R, MC4R, MCSR) of NDP-α-MSH from each total binding amount was used as specific binding amounts of ^125I-NDP-α-MSH. The degree to which the ^125I-NDP-α-MSH specific binding was inhibited by the agonist diluted at each step concentration was measured. IC50 was expressed as the concentration of each agonist that inhibited specific binding of 50% of ^125I-NDP-α-MSH.
Target sequence in this assay (P32245 whole entry): as the sequence (P32245 whole entry, species assumed) above

[3] = Pharmacokinetic profile in mice, plasma and brain, oral administration; format: in vivo, C57BL6 mice; conditions: 10 mg/kg; for AUC(0-inf) / half-life / Cmax / Kp: C57BL6, mouse; for Kp: brain/plasma, read-out: Brain to Plasma AUC ratio, mean ratio
Procedure: In order to investigate the pharmacokinetics (PK) properties of the compound of Example 1 and the compounds of comparative examples, the following experiment was performed. In order to perform the PK test for the compound of Example 1 and the compounds of the comparative examples ([…]), about 7 week-old C57BL6 mice were prepared, 12 individuals were assigned per administered substance, separated into groups, and starved for oral administration. On the day of administration, a drug solution was prepared at a concentration of 1 mg/mL by using distilled water (DW) as a vehicle and was orally administered at […] body weight of each individual, and the final dose was 10 mg/kg. At 1, 3, 8, and 24 hours after the administration, whole blood was collected through cardiac blood collection from each of the 3 individuals in each group and then placed in a heparin tube to prevent coagulation. Thereafter, the cerebrum of each individual was collected and placed in an EP tube, the weight of the tissue was measured, and frozen storage was performed at -20° C. […] In this case, AN included an internal standard. […] After 0.5 μL of the supernatant obtained after deproteinization was injected into LC-MS/MS, peak areas of the compounds of the example and the comparative examples ([…]) were corrected with the peak areas of IS to obtain the peak response at each sample collection point and perform the concentration conversion by a calibration curve. The pharmacokinetic parameters (Cmax, AUCinf, t1/2, and the like) were calculated by a noncompartmental analysis method by using WinNonlin 8.1 for the values of the blood concentration with time for each administration group. The pharmacokinetic characteristics of each compound were compared by comparing exposure, half-life changes, and the like for each drug administration group, and the resultant values are shown in Tables 5 and 6.

[4] = brain, read-out: t1/2, Brain (converted)
[5] = plasma, read-out: AUCinf, Plasma
[6] = plasma, read-out: t1/2, Plasma (converted)

EC50 [1] [nM] | Ki [2] [nM] | Cmax, Brain ([3]; brain) [ng/mL] | AUC(0-inf) ([3]; brain, read-out: AUCinf, Brain) [ng·h/mL] | half-life [3, 4] [h] | Cmax ([3]; plasma) [ng/mL] | AUC(0-inf) [3, 5] [ng·h/mL] | half-life [3, 6] [h] | Kp [3] | SMILES
17.4 | 1400 | 20 | 222 | 6 | 205 | 565 | 2.7 | 0.39 | CC(=O)N(C1CCC(C)(C)CC1)[C@H]1C[C@@H](C(=O)N2CCOCC2)N(C(=O)[C@@H]2CN(C(C)(C)C)C[C@H]2c2ccc(F)cc2F)C1.Cl [Comparative Example 1 (A95), N-((3S,5S)-1-((3S,4R)-1-(tert-butyl)-4-(2,4-difluorophenyl)pyrrolidine-3-carbonyl)-5-(morpholine-4-carbonyl)pyrrolidin-3-yl)-N-(4,4-dimethylcyclohexyl)acetamide hydrochloride]
5.48 | 360 | 27.1 | 530 | 8 | 337 | 1650 | 2.6 | 0.32 | CC(=O)N(C1CCC(C)(C)CC1)[C@H]1C[C@@H](C(=O)N2CCOCC2)N(C(=O)[C@@H]2CN(C(C)(C)C)C[C@H]2c2ccc(Cl)cc2)C1.Cl [Comparative Example 2 (A96), N-((3S,5S)-1-((3S,4R)-1-(tert-butyl)-4-(4-chlorophenyl)pyrrolidine-3-carbonyl)-5-(morpholine-4-carbonyl)pyrrolidin-3-yl)-N-(4,4-dimethylcyclohexyl)acetamide hydrochloride]
0.562 | 65 | 49.1 | 1500 | 19 | 232 | 2070 | 3.9 | 0.72 | CC(C)C(=O)N([C@H]1C[C@@H](C(=O)N2CCOCC2)N(C(=O)[C@@H]2CN(C(C)(C)C)C[C@H]2c2ccc(Cl)cc2)C1)[C@H]1CC[C@@H](C)CC1.Cl [Example 1, N-((3S,5S)-1-((3S,4R)-1-(tert-butyl)-4-(4-chlorophenyl)pyrrolidine-3-carbonyl)-5-(morpholine-4-carbonyl)pyrrolidin-3-yl)-N-((1s,4R)-4-methylcyclohexyl)isobutyramide hydrochloride]
